Patent US11459338B2, “Heterocyclic compounds as PRMT5 inhibitors” (JUBILANT EPISCRIBE LLC, priority 2018, dated 2022)
Where two headings read alike, the source gives them in different places.

Legend:
Z-138 cells = test: Z-138 long term proliferation assay (Cell Titer Glo); type: cell-based; settings: Homo sapiens; for GI50: 192 h, Z-138 cells, cell viability, day 8, read-out: PRMT5 Z138 GI50 Day 8 μM; for IC50: Z-138, 192 h, summary of Table 1, read-out: IC50 value (all the three assays): Z138 GI50 Day 8
How it was run: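 Z-138 cells exposed to ten-point 3-fold dilutions (top 10 μM, 0.3% DMSO) for 96 h at 37° C., 5% CO2, then re-dosed for four more days.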

PRMT5/MEP50 = target: T1, PRMT5/MEP50 (Homo sapiens, UniProt O14744); test: PRMT5/MEP50 enzyme assay on peptide substrates (3H-SAM Flashplate); type: biochemical; settings: PRMT5/MEP50 10 nM, H4 1-15aa peptide 100 nM, 3H-SAM 1 μM
T1 construct: Full-length human PRMT5 (NP_006100)
T1 sequence (O14744 whole entry): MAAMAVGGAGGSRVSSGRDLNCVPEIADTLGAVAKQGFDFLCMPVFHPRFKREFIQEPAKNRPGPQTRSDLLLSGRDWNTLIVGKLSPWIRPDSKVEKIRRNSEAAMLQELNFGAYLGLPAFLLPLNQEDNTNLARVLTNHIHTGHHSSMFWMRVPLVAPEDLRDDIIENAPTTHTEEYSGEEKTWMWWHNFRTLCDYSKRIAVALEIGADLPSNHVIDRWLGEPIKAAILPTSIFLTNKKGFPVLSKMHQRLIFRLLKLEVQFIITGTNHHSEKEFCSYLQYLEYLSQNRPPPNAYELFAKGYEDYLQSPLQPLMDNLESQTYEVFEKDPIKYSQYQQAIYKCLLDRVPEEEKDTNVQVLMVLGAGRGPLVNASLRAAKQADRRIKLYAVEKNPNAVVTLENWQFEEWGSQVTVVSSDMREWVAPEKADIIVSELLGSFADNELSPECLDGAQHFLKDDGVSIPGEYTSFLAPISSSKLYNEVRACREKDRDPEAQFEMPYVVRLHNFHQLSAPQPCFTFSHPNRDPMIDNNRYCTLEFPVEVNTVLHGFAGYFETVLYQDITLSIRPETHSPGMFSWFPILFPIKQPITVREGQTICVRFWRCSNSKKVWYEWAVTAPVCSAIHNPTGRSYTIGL
T1 sequence (Q9BQA1 whole entry partner): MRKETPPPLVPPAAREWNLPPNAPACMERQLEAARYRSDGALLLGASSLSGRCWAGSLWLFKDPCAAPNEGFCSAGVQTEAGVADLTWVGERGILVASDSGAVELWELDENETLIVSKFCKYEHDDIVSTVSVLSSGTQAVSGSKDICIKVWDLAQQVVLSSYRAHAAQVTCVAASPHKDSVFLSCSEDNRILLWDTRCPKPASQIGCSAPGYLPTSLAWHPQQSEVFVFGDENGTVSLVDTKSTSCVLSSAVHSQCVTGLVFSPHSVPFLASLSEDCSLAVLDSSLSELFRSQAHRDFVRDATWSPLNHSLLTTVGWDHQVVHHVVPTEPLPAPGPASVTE

[1] = system: Symmetric di-methyl arginine in Z-138 cells; test: Z-138 methylation assay, ELISA for detection of symmetric di-methyl arginine; type: cell-based; settings: Homo sapiens
Method: General reagents. […] Iscove's Modified Dulbecco's Medium (IMDM), Horse serum, penicillin-streptomycin, PBS and TMB-ELISA substrate solution were purchased from ThermoFisher Scientific. Symmetric di-methyl arginine antibody was purchased from Cell Signaling Technologies.Anti-SNRPD3/SmD3 antibody was purchased from Sigma-Aldrich.
ELISA for detection of Symmetric di-methyl arginine. […] A compound source plate was prepared by performing ten-point 3-fold dilution in DMSO, such that the final top concentration of the compound was 10 μM, and DMSO was 0.3%. The total volume of compounds added was 20 μL. The cells were incubated for 96 h at 37° C., 5% CO2. Z-138 cells were directly lysed in media with 3× Lysis Buffer (1×: 10 mM HEPES pH7.9, 5 mM MgCl2, 1M NaCl, 0.25M Sucrose, 1% Triton X-100, 1 mM PMSF, Protease & Phosphatase inhibitors). […] Plates were incubated at room temperature for a minimum of 3 h and then washed with PBS-Tween 20 (0.05%). The plates were blocked with 5% BSA at room temperature for 1 h, washed with PBS-Tween 20 and incubated with primary antibody at 4 C overnight.

[2] = Z-138 cells, 96 h (day 4), read-out: PRMT5 Z138 SDMA ELISA Day 4 μM
[3] = Z-138, 96 h, summary of Table 1, read-out: IC50 value (all the three assays): Z138 SDMA ELISA Day 4

| IC50 (PRMT5/MEP50) [nM] | IC50 [1, 2] [nM] | IC50 [1, 3] [nM] | SMILES | GI50 (Z-138 cells) [nM] | IC50 (Z-138 cells) [nM] |
| --- | --- | --- | --- | --- | --- |
| > 5000 | 10 to 1000 | – | Cn1cc(-c2cnc3nc(C(=O)NC[C@H](O)CN4CCc5ccccc5C4)cn3c2)cn1 [Example 43, (S)—N-(3-(3,4-dihydroisoquinolin-2(1H)-yl)-2-hydroxypropyl)-6-(1-methyl-1H-pyrazol-4-yl)imidazo[1,2-a]pyrimidine-2-carboxamide] | > 5000 | – |
| 10 to 1000 | 10 to 1000 | 10 to 1000 | Cc1noc(C)c1-c1ccc2nc(C(=O)NC[C@H](O)CN3CCc4ccccc4C3)cn2c1 [Example 15, (S)—N-(3-(3,4-dihydroisoquinolin-2(1H)-yl)-2-hydroxypropyl)-6-(3,5-dimethylisoxazol-4-yl)imidazo[1,2-a]pyridine-2-carboxamide] | 10 to 1000 | 10 to 1000 |

Further lines, the compound ahead of its results:

| SMILES | IC50 (PRMT5/MEP50) [nM] | IC50 [1, 2] [nM] | IC50 [1, 3] [nM] | GI50 (Z-138 cells) [nM] | IC50 (Z-138 cells) [nM] |
| --- | --- | --- | --- | --- | --- |
| CC1CCn2cc(C(=O)NCC(O)CN3CCc4ccccc4C3)nc2C1 (stereo not shown) [Example 103, N-(3-(3,4-dihydroisoquinolin-2(1H)-yl)-2-hydroxypropyl)-7-methyl-5,6,7,8-tetrahydroimidazo[1,2-a]pyridine-2-carboxamide] | 1000 to 5000 | 10 to 1000 | – | 10 to 1000 | – |
| CCCC1CCc2nc(C(=O)NCC(O)CN3CCc4ccccc4C3)cn2C1 (stereo not shown) [Example 106, N-(3-(3,4-dihydroisoquinolin-2(1H)-yl)-2-hydroxypropyl)-6-propyl-5,6,7,8-tetrahydroimidazo[1,2-a]pyridine-2-carboxamide] | 10 to 1000 | 10 to 1000 | – | 1000 to 5000 | – |
| O=C(NC[C@H](O)CN1CCc2ccccc2C1)c1cn2c(n1)CCC(C(F)(F)F)C2 (stereo partly drawn) [Example 114, N—((S)-3-(3,4-dihydroisoquinolin-2(1H)-yl)-2-hydroxypropyl)-6-(trifluoromethyl)-5,6,7,8-tetrahydroimidazo[1,2-a]pyridine-2-carboxamide] | 1000 to 5000 | 10 to 1000 | – | 10 to 1000 | – |
| O=C(NC[C@H](O)CN1CCc2ccccc2C1)c1cn2cc(N3CCC(F)C3)ncc2n1 (stereo partly drawn) [Example 73, N—((S)-3-(3,4-dihydroisoquinolin-2(1H)-yl)-2-hydroxypropyl)-6-(3-fluoropyrrolidin-1-yl)imidazo[1,2-a]pyrazine-2-carboxamide] | 1000 to 5000 | 10 to 1000 | – | 1000 to 5000 | – |
| O=C(NC[C@H](O)CN1CCc2ccccc2C1)c1cn2c(n1)CCC(c1ccc(F)cc1)C2 (stereo partly drawn) [Example 115, N—((S)-3-(3,4-dihydroisoquinolin-2(1H)-yl)-2-hydroxypropyl)-6-(4-fluorophenyl)-5,6,7,8-tetrahydroimidazo[1,2-a]pyridine-2-carboxamide] | 10 to 1000 | 10 to 1000 | 10 to 1000 | 10 to 1000 | 10 to 1000 |
